Assay results from ChEMBL document CHEMBL1201862, “PubChem BioAssay data set” (2004).
Active and inactive are the calls of the source.

Experiments:
[1] = molecular target: DNA dC->dU-editing enzyme APOBEC-3A (Homo sapiens, UniProt P31941); assay: APOBEC3A DNA deaminase inhibitors, dose response, biochemical (AID 504722); format: functional
[2] = molecular target: DNA dC->dU-editing enzyme APOBEC-3G (Homo sapiens, UniProt Q9HC16); assay: Dose Response confirmation of small molecule APOBEC3G DNA Deaminase Inhibitors via a fluorescence-based single-stranded DNA deaminase assay. [Related pubchem assays (depositor defined):AID493012, AID493028]; format: functional
Chain of DNA dC->dU-editing enzyme APOBEC-3G (Q9HC16 whole entry): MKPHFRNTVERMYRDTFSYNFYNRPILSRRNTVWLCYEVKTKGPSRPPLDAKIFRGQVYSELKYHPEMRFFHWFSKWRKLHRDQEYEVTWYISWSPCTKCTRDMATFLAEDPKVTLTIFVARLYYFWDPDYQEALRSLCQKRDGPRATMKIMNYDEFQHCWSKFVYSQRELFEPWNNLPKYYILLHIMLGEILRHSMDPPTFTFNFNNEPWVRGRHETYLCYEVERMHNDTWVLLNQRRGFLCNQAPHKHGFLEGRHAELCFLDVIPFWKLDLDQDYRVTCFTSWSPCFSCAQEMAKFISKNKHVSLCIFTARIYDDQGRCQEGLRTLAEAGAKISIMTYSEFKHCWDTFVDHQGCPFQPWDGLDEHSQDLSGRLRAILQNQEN

[3] = M. tuberculosis growth inhibition, HTS (AID 449762); format: functional
[4] = molecular target: Eukaryotic translation initiation factor 4E (Mus musculus, UniProt P63073); assay: eIF4E–eIF4G protein interaction inhibitors, dose response, biochemical, TR-FRET (AID 855); format: functional;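 note: potency for disrupting eIF4E binding to eIF4GI seen as loss of FRET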
Chain of Eukaryotic translation initiation factor 4E (P63073 whole entry): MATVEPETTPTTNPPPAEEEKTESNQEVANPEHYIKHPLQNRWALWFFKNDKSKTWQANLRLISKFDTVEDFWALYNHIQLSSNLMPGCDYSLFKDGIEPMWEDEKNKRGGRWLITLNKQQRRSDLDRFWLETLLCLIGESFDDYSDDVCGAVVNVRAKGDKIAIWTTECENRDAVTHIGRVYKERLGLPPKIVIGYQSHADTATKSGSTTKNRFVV

[5] = molecular target: T1, Short transient receptor potential channel 4 (Mus musculus, UniProt Q9QUQ5); assay: mouse TRPC4 channel activators, dose response, cell-based, HEK293 TRPC4/mu-opioid, Fluo-4 calcium (AID 434937); format: functional
T1 sequence (Q9QUQ5 whole entry): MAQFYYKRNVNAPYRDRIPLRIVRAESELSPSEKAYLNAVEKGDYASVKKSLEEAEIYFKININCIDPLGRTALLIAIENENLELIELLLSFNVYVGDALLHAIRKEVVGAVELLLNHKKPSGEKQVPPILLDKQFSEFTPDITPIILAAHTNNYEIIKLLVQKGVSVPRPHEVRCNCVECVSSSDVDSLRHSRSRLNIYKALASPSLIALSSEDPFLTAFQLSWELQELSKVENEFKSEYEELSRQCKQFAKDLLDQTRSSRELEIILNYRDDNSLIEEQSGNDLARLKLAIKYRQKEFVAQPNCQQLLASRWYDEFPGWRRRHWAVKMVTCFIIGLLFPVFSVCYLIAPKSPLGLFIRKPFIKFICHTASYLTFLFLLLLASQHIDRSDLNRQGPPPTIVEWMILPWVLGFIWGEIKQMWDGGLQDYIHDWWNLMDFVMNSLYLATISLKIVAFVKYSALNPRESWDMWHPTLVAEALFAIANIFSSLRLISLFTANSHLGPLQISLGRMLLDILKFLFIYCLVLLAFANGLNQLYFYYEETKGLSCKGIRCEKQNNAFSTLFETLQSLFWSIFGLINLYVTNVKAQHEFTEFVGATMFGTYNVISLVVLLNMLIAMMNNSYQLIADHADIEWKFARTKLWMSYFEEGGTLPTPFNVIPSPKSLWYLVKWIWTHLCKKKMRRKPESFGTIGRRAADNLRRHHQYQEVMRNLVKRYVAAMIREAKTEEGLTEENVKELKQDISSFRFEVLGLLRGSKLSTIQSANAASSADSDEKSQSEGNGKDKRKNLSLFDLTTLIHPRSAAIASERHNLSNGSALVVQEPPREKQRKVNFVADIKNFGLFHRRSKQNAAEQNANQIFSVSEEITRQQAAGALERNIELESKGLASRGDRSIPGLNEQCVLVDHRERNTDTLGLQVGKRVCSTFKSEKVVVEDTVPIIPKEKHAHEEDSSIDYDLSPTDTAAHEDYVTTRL

[6] = molecular target: T1, Short transient receptor potential channel 4; assay: TRPC4 positive allosteric modulators, dose response, cell-based, HEK293 TRPC4/mu-opioid, Fluo-4 calcium, EC20 DAMGO (AID 434941); format: functional
Hexokinase = Hexokinase (Trypanosoma brucei, UniProt Q38C41); assay: Confirmation assay for inhibitors of Trypanosoma brucei hexokinase 1-Analogue-first series. [Related pubchem assays (depositor defined):AID1430, AID1632, AID2516, AID2560, AID2579, AID2600, AID449725, AID492951]; format: functional
Chain of Hexokinase (Q38C41 whole entry): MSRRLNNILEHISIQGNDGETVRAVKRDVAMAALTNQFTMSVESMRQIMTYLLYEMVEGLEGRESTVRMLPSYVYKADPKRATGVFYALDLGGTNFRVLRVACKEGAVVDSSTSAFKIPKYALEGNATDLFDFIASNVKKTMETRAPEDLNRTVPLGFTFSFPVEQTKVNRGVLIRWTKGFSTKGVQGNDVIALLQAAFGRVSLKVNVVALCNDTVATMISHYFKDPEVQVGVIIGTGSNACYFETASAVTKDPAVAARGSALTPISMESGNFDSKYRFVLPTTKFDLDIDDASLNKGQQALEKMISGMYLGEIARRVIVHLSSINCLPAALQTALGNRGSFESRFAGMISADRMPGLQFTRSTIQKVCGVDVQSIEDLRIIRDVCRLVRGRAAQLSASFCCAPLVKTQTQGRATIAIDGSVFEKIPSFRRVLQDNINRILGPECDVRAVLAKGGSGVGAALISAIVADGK

[7] = cytotoxicity toward NIH3T3 fibroblasts, dose response, counter-screen, cell-based, ATP luminescence, mouse fibroblasts (AID 2010); format: functional;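 note: cells exposed to compound for about 90 hours before reading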
[8] = inhibitors of intracellular T. cruzi replication, confirmation, NIH3T3 host cells, beta-gal luminescence (AID 2044); format: functional, cell-based;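 note: intracellular parasites grown in NIH/3T3 mouse fibroblasts as host cells; luminescent beta-galactosidase reporter signal from transgenic T. cruzi replicating inside host cells; inhibitors lower the luminescence signal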
Beta-galactosidase = Beta-galactosidase (Escherichia coli, UniProt Q8VNN2); assay: beta-galactosidase enzyme inhibitors and activators, dose response, artefact control for CCR6 antagonist project, biochemical, E. coli enzyme, set 3 (AID 504712); format: functional
Chain of Beta-galactosidase (Q8VNN2 whole entry): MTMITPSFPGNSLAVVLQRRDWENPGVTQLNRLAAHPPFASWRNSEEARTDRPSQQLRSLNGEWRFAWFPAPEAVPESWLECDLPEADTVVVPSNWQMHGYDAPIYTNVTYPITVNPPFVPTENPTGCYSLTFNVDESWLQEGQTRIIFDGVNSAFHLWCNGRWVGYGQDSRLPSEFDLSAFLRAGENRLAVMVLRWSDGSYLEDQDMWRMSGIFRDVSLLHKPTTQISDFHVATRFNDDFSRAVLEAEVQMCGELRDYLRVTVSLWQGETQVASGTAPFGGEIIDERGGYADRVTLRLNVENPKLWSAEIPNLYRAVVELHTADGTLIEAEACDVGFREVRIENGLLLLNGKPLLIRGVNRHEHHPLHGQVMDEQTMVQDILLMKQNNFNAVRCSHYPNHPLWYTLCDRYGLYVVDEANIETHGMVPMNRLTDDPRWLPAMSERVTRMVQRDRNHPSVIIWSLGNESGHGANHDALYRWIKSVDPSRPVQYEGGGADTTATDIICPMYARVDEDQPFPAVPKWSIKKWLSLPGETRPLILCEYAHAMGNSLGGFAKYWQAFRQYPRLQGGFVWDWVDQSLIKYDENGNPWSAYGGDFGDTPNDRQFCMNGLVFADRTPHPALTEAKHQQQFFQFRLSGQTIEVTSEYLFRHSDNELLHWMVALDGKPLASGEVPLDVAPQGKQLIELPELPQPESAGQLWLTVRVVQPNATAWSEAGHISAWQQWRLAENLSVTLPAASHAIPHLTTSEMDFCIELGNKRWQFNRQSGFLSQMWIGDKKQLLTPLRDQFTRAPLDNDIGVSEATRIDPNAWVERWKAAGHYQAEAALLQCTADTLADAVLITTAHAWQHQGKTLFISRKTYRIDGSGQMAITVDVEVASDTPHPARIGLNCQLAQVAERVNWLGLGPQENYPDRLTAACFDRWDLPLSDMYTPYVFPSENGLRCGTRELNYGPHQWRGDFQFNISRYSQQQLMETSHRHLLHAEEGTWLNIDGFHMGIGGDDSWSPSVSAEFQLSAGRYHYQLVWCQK

Trypsin = Trypsin (Sus scrofa, UniProt P00761); assay: porcine trypsin inhibitors, dose response, selectivity assay for Rce1 protease inhibitor project, biochemical, quenched peptide fluorescence, cherry-pick (AID 488789)
Chain of Trypsin (P00761 whole entry): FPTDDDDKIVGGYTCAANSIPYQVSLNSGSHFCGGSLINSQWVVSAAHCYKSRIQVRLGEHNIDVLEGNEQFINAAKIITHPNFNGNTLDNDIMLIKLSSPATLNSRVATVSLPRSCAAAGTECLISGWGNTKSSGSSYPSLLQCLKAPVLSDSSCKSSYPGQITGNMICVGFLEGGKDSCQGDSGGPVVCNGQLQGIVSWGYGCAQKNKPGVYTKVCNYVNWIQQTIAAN

Chain of DNA dC->dU-editing enzyme APOBEC-3A (P31941 whole entry): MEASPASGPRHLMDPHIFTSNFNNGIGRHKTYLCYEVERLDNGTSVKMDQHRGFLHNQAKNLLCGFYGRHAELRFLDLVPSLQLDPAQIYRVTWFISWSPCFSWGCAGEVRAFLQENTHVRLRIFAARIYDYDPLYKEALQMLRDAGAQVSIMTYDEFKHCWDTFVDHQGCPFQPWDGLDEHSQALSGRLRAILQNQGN

In the case of Cc1nn(-c2ccccc2)c(S)c1/C=N/CCC/N=C/c1c(C)nn(-c2ccccc2)c1S, the IC50 [1] is reported as > 100 µM (inactive), the IC50 [2] is reported as 5.47 µM (active) and the IC50 [3] is reported as > 100 µM (active).
In the case of O=C1c2ccccc2C(=O)N1Cc1nc2ccccc2c(=O)n1-c1ccccn1, the IC50 [4] is reported as > 64 µM (inactive).
For CN(C)CCCOc1cccc(Cl)c1, the EC50 [5] was 60 nM (active) and the EC50 [6] was 30 nM (active).
In the case of CCOC(=O)Cn1sc2ccccc2c1=O, the IC50 (Hexokinase) is reported as 12.5 µM (active).
With CC1Cc2ccccc2N1C(=O)CSc1nc2c(c(=O)n(C)c(=O)n2C)n1Cc1ccccc1 (centres undefined) the EC50 [5] was 2110 nM (active), the EC50 [7] was > 60 µM (not active) and the EC50 [6] was 150 nM (active). The EC50 [8] was 4.07 µM (active).
For CC(C)Cc1nnc(NC(=O)c2cc([N+](=O)[O-])ccc2N2CCOCC2)s1, the IC50 (Beta-galactosidase) was > 66.6 µM (inactive).
For COc1nc(-c2ccccc2)ccc1-c1noc(-c2ccccc2F)n1, the AC50 (Trypsin) was > 100 µM (inactive).
With O=C(NC1CCCCCCC1)c1ccc2c(c1)OCO2 the IC50 [4] was > 64 µM (inactive).
